Measurements taken from PubChem BioAssay AID192 (DTP/NCI, 2004).
Values joined by “and” are separate entries in the source; they are usually repeats but may differ in a detail not shown here. Equal values may be shown once. Toxic doses and inconclusive results are not listed. Rule for the calls: active = survival T/C of 150% or more; inactive = T/C below 125% in these data.

Tested on: BDF1 mice, B16 melanoma ip, median survival T/C
Test: NCI In Vivo Anticancer Drug Screen. Data for tumor model B16 Melanoma (intraperitoneal) in B6D2F1 (BDF1) mice
Settings: endpoint: median survival time, higher = longer survival
Procedure, shortened: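 Survival or tumor size is measured after treatment of tumor-bearing mice and normalised to the vehicle-treated control group.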

[1] = dose: 3.12 mg/kg/injection, schedule: Q01DX009 (ip), vehicle: Klucel (hydroxypropylcellulose) (HPC)
[2] = dose: 6.25 mg/kg/injection, schedule: Q01DX009 (ip), vehicle: Klucel (hydroxypropylcellulose) (HPC)
[3] = dose: 12.5 mg/kg/injection, schedule: Q01DX009 (ip), vehicle: Klucel (hydroxypropylcellulose) (HPC)
[4] = dose: 50.0 mg/kg/injection, schedule: Q01DX009 (ip), vehicle: Klucel (hydroxypropylcellulose) (HPC)
[5] = dose: 25.0 mg/kg/injection, schedule: Q01DX009 (ip), vehicle: saline with Tween-80
[6] = dose: 50.0 mg/kg/injection, schedule: Q01DX009 (ip), vehicle: saline with Tween-80
[7] = dose: 100.0 mg/kg/injection, schedule: Q01DX009 (ip), vehicle: saline with Tween-80
[8] = dose: 400.0 mg/kg/injection, schedule: Q01DX009 (ip), vehicle: saline with Tween-80
[9] = dose: 200.0 mg/kg/injection, schedule: Q01DX009 (ip), vehicle: saline with Tween-80
[10] = dose: 100.0 mg/kg/injection, schedule: Q01DX009 (ip), vehicle: Klucel (hydroxypropylcellulose) (HPC)
[11] = dose: 200.0 mg/kg/injection, schedule: Q01DX009 (ip), vehicle: Klucel (hydroxypropylcellulose) (HPC)
[12] = dose: 400.0 mg/kg/injection, schedule: Q01DX009 (ip), vehicle: Klucel (hydroxypropylcellulose) (HPC)
[13] = dose: 50.0 mg/kg/injection, schedule: Q01DX009 (ip), vehicle: saline
[14] = dose: 4.0 mg/kg/injection, schedule: Q01DX009 (ip), vehicle: saline with Tween-80
[15] = dose: 100.0 mg/kg/injection, schedule: Q04DX003 (ip), vehicle: saline with Tween-80
[16] = dose: 400.0 mg/kg/injection, schedule: Q04DX003 (ip), vehicle: saline with Tween-80

Measured: T/C

CC(CN(C)C)CN1c2ccccc2CCc2ccccc21 (stereo not given)
inactive: dose: 2.18 mg/kg/injection, schedule: Q01DX009 (ip), vehicle: saline 106 % of control | dose: 4.37 mg/kg/injection, schedule: Q01DX009 (ip), vehicle: saline 110 % of control | dose: 8.75 mg/kg/injection, schedule: Q01DX009 (ip), vehicle: saline 100 % of control | dose: 17.5 mg/kg/injection, schedule: Q01DX009 (ip), vehicle: saline 91 % of control

CCc1ccc(NC(=O)Nc2ccccc2C)cc1
inactive: dose: 100.0 mg/kg/injection, schedule: Q04DX003 (ip), vehicle: Klucel (hydroxypropylcellulose) (HPC) 96 % of control | dose: 200.0 mg/kg/injection, schedule: Q04DX003 (ip), vehicle: Klucel (hydroxypropylcellulose) (HPC) 96 % of control | dose: 400.0 mg/kg/injection, schedule: Q04DX003 (ip), vehicle: Klucel (hydroxypropylcellulose) (HPC) 100 % of control

CN1C(=O)CCS(=O)(=O)C1c1ccc(Cl)c(Cl)c1 (stereo not given)
inactive: dose: 0.39 mg/kg/injection, schedule: Q01DX009 (ip), vehicle: Klucel (hydroxypropylcellulose) (HPC) 103 % of control | dose: 0.78 mg/kg/injection, schedule: Q01DX009 (ip), vehicle: Klucel (hydroxypropylcellulose) (HPC) 87 % of control | dose: 1.56 mg/kg/injection, schedule: Q01DX009 (ip), vehicle: Klucel (hydroxypropylcellulose) (HPC) 109 % of control and 116 % of control | [1] 111 % of control and 118 % of control | [2] 103 % of control and 111 % of control | [3] 97 % of control | [4] 90 % of control

CCCCCCCCCCCCCCCCOc1ccccc1C(C)=O
inactive: [5] 92 % of control | [6] 92 % of control | [7] 89 % of control | [8] 100 % of control

O=C(OCCCCCCl)c1ccccc1
inactive: [7] 117 % of control | [9] 104 % of control | [8] 106 % of control

CCOc1ccc(NC(=O)C=O)cc1
inactive: [10] 100 % of control | [11] 90 % of control | [12] 90 % of control

CC(=O)Nc1ccc(C)c(Cl)c1
inactive: [7] 111 % of control | [9] 90 % of control

OCCOc1c(Cl)c(Cl)c(Cl)c(Cl)c1Cl
inactive: [5] 100 % of control | [6] 92 % of control | [7] 97 % of control

COc1ccc(C=Nc2ccc(Cl)cc2)cc1
inactive: [4] 104 % of control | [10] 103 % of control | [11] 106 % of control

Oc1ccc(Nc2c3ccccc3nc3c2ccc2ccccc23)cc1CN(CCCl)CCCl
inactive: dose: 0.3 mg/kg/injection, schedule: Q01DX009 (ip), vehicle: saline 100 % of control | dose: 0.45 mg/kg/injection, schedule: Q01DX009 (ip), vehicle: saline 117 % of control | dose: 0.8 mg/kg/injection, schedule: Q01DX009 (ip), vehicle: saline 100 % of control | dose: 1.2 mg/kg/injection, schedule: Q01DX009 (ip), vehicle: saline 107 % of control

CCCCCCCCCCCCCCCC(C)(C)O
inactive: [10] 100 % of control | [11] 100 % of control | [12] 86 % of control

CC(=O)Oc1c(C)c2c(O)c3c1C1=C(OCOC1=C(C)C3=O)C(C)=CC(C)(O)C(O)C(C)C(O)C1C(=O)OC(C(C)/C=C\C=C(C)C(=O)N2)C(C)C1O (stereo not given)
inactive: [13] 97 % of control

C1CCC2C[N-]CCC2C1.C1CCC2C[N-]CCC2C1.C1CCC2C[N-]CCC2C1.C1CCC2C[N-]CCC2C1.[Cl][Rh][Cl] (stereo not given)
inactive: dose: 0.25 mg/kg/injection, schedule: Q01DX009 (ip), vehicle: saline 100 % of control | dose: 0.5 mg/kg/injection, schedule: Q01DX009 (ip), vehicle: saline with Tween-80 104 % of control | dose: 0.5 mg/kg/injection, schedule: Q01DX009 (ip), vehicle: saline 104 % of control | dose: 1.0 mg/kg/injection, schedule: Q01DX009 (ip), vehicle: saline with Tween-80 95 % of control | dose: 1.0 mg/kg/injection, schedule: Q01DX009 (ip), vehicle: saline 115 % of control | dose: 2.0 mg/kg/injection, schedule: Q01DX009 (ip), vehicle: saline with Tween-80 92 % of control | dose: 2.0 mg/kg/injection, schedule: Q01DX009 (ip), vehicle: saline 123 % of control | [14] 86 % of control | dose: 4.0 mg/kg/injection, schedule: Q01DX009 (ip), vehicle: saline 115 % of control | dose: 8.0 mg/kg/injection, schedule: Q01DX009 (ip), vehicle: saline 110 % of control

C=CN1CCCC1=O
inactive: dose: 178.0 mg/kg/injection, schedule: Q01DX009 (ip), vehicle: saline 109 % of control | dose: 266.0 mg/kg/injection, schedule: Q01DX009 (ip), vehicle: saline 100 % of control | dose: 400.0 mg/kg/injection, schedule: Q01DX009 (ip), vehicle: saline 104 % of control | dose: 600.0 mg/kg/injection, schedule: Q01DX009 (ip), vehicle: saline 111 % of control | dose: 750.0 mg/kg/injection, schedule: Q01DX009 (ip), vehicle: saline 108 % of control

Nc1c(Cl)c(Cl)nc(C(=O)O)c1Cl
inactive: [2] 96 % of control | [3] 108 % of control | dose: 25.0 mg/kg/injection, schedule: Q01DX009 (ip), vehicle: Klucel (hydroxypropylcellulose) (HPC) 108 % of control | dose: 25.0 mg/kg/injection, schedule: Q02DX009 (ip), vehicle: Klucel (hydroxypropylcellulose) (HPC) 95 % of control | [4] 96 % of control | dose: 50.0 mg/kg/injection, schedule: Q02DX009 (ip), vehicle: Klucel (hydroxypropylcellulose) (HPC) 91 % of control | dose: 50.0 mg/kg/injection, schedule: Q02DX009 (ip), vehicle: other 95 % of control | [10] 102 % of control | dose: 100.0 mg/kg/injection, schedule: Q02DX009 (ip), vehicle: other 86 % of control | [11] 98 % of control

C=C(C)[C@H]1Cc2c(ccc3c2O[C@@H]2COc4cc(OC)c(OC)cc4[C@@H]2C3=O)O1
inactive: [14] 92 % of control and 99 % of control | dose: 8.0 mg/kg/injection, schedule: Q01DX009 (ip), vehicle: saline with Tween-80 105 % of control | dose: 16.0 mg/kg/injection, schedule: Q01DX009 (ip), vehicle: saline with Tween-80 98 % of control

NC(=O)N/N=C1\CC2C=CCC12 (stereo not given)
inactive: [6] 105 % of control | [7] 97 % of control | [9] 101 % of control

C=CCOCC(O)CN(C)CC1CCCO1 (stereo not given)
inactive: dose: 25.0 mg/kg/injection, schedule: Q01DX009 (ip), vehicle: saline 103 % of control | [13] 102 % of control | dose: 100.0 mg/kg/injection, schedule: Q01DX009 (ip), vehicle: saline 91 % of control

CC(C)C1=CC2=CCC3C(C)(C(N)=O)CCCC3(C)C2CC1CC#N (stereo not given)
inactive: [15] 102 % of control | [16] 88 % of control

Clc1ccc(C[P+](c2ccccc2)(c2ccccc2)c2ccccc2)cc1Cl
inactive: [1] 103 % of control | [2] 101 % of control | [3] 107 % of control

Cc1cc2ccc(OC(=O)c3ccc(N=C(N)N)cc3)cc2oc1=O
inactive: dose: 12.5 mg/kg/injection, schedule: Q01DX009 (ip), vehicle: saline with Tween-80 91 % of control | [5] 100 % of control | [7] 86 % of control | [15] 92 % of control | dose: 200.0 mg/kg/injection, schedule: Q04DX003 (ip), vehicle: saline with Tween-80 95 % of control | [16] 95 % of control
